Assay results: paper PMC8091061, “Ceramide-1-phosphate transfer protein (CPTP) regulation by phosphoinositides” (The Journal of Biological Chemistry, 2021)

How the values were obtained:
human CPTP (wtCPTP) = assay: FRET from CPTP Trp/Tyr to dansyl-PE in POPC vesicles; format: binding; conditions: pH 6.6, 150 mM NaCl, EDTA, 25 °C
From the text: FRET from CPTP Trp/Tyr to dansyl-PE in POPC vesicles on human CPTP (wtCPTP)

human GLTP = target: T1, human GLTP (Homo sapiens, UniProt Q9NZD2); assay: FRET intervesicular lipid transfer; format: biochemical; conditions: labelled compound; POPC donor to POPC acceptor vesicles, pH 6.6, 150 mM NaCl, EDTA, 25 °C; transfer cargo, not chemically converted
T1 sequence (Q9NZD2 1-209): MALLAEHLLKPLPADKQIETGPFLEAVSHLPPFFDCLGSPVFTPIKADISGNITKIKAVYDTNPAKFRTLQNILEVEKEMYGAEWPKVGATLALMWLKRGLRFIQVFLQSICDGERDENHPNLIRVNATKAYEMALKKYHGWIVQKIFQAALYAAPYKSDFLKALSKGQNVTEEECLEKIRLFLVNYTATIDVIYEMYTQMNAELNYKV

[1] = apparent Kd for POPC vesicles with 10 mol% lipid and 2 mol% dansyl-PE (vesicle PC concentration, not free lipid)

Compound	Kd (human CPTP (wtCPTP); [1]) [nM]	other results
CCCCCCCC/C=C\CCCCCCCC(=O)O[C@H](COC(=O)CCCCCCCCCCCCCCC)COP(=O)([O-])OCC[N+](C)(C)C [POPC, 1-Palmitoyl-2-oleyl-sn-glycero-3-phosphocholine]		Kd (human CPTP (wtCPTP); pure POPC vesicles with 2 mol% dansyl-PE (apparent, vesicle PC concentration)): 1760 ± 200 nM
CCCCCCCCCCCCC/C=C/[C@@H](O)[C@H](CO[C@@H]1O[C@H](CO)[C@H](O)[C@H](O)[C@H]1O)NC(=O)CCCCCCCCC/C=C/c1c2ccccc2cc2ccccc12 [AV-GalCer]		FRET intervesicular lipid transfer (human GLTP): GalCer transfer rates by GLTP were unaffected by PI and PI-3P
PI-3P	290 ± 40	
CCCCCCCC/C=C\CCCCCCCC(=O)OC[C@H](COP(=O)(O)O[C@@H]1[C@H](O)[C@H](O)[C@@H](OP(=O)(O)O)[C@H](OP(=O)(O)O)[C@H]1O)OC(=O)CCCCCCC/C=C\CCCCCCCC [PI-(4,5)P2, 1,2-dioleoyl-sn-glycero-3-phospho-(1'-myo-inositol-4',5'-bisphosphate)]	260 ± 40	
CCCCCCCC/C=C\CCCCCCCC(=O)OC[C@H](COP(=O)(O)O[C@H]1[C@H](O)[C@@H](O)[C@H](OP(=O)(O)O)[C@@H](O)[C@H]1O)OC(=O)CCCCCCC/C=C\CCCCCCCC [PI-4P, 1,2-dioleoyl-sn-glycero-3-phospho-(1'-myo-inositol-4'-phosphate)]	260 ± 30	
CCCCCCCC/C=C\CCCCCCCC(=O)OC[C@H](COP(=O)(O)O[C@@H]1[C@H](O)[C@H](O)[C@@H](O)[C@H](O)[C@H]1O)OC(=O)CCCCCCC/C=C\CCCCCCCC [PI, 1,2-dioleoyl-sn-glycero-3-phospho-(1'-myo-inositol)]	750 ± 90	
